These results are taken from patent EP4227307A1 (Genzyme Corporation, priority 2022, dated 2023).

SMILES strings stand for the structures. Where a name gives a salt, the structure may show the parent alone.

For this test, the target named is T1, human recombinant 6His-Nterm SHP2 full-length (Thr2-Arg593) (Homo sapiens, UniProt Q06124).
T1 construct: 6His-Nterm SHP2 full-length (Thr2-Arg593, R&D system); 6His (N); purchased R&D system
T1 sequence (Q06124 2-593): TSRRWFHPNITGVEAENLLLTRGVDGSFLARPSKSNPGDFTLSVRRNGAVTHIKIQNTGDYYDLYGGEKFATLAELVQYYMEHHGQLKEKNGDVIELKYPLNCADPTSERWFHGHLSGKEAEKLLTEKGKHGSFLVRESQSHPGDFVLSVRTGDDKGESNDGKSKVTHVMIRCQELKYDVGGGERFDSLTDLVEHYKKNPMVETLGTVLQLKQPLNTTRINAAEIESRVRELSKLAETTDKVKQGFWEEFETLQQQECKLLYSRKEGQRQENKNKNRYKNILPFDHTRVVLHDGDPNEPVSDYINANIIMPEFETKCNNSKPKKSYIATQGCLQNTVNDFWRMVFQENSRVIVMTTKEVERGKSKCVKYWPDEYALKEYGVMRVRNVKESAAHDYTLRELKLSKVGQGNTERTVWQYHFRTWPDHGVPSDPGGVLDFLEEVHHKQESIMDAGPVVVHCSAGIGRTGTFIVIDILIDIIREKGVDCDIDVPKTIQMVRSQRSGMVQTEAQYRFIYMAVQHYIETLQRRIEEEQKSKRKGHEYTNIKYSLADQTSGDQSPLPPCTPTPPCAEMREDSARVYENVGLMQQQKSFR
Kind of test: SHP2 Phosphatase Assay (DiFMUP fluorescence). It is filed as biochemical. Particulars: SHP2 0.2 nM pre-incubated with 100 nM bi-phosphorylated activating peptide; compound 1000-0.05 nM, 30 min pre-incubation; DiFMUP 20 µM, 45 min, room temperature; 10-concentration dose-response. The method, then: Inhibition of SHP2 phosphatase activity was evaluated using human recombinant 6His-Nterm SHP2 full-length (Thr2-Arg593, R&D system), NsCs bi-phosphorylated activating peptide (NH2-LN(pY)AQLWHA(PEG8)LTI(pY)ATIRRF-Amide.acetate, Thermofischer Scientific) and DiFMUP as surrogate phosphatase substrate (Molecular Probes). All reactions were performed at room temperature in 384-well black polystyrene non-binding plate (Corning) with the assay buffer (50 mM HEPES-NaOH pH 7.2, 100 mM NaCl, 0.5 mM EDTA, 0.001% Brij35 including 0.02% BSA and 1 mM DTT added extemporaneously). SHP2 was pre-incubated at least 10 min with the activating peptide (0.2 nM and 100 nM, respectively). 10 µL of this mixture was added to the assay plate, that already contained 15 nL of the compound (1000-0.05 nM). After 30 min pre-incubation, the enzymatic reaction was initiated by the addition of 5 µL DiFMUP in assay buffer without BSA (20 µM). The reaction was stopped by the addition of 15 µL sodium pervanadate solution (100 µM) after 45 min incubation. The fluorescence signal was measured at excitation and emission wavelengths of 350 nm and 450 nm, respectively, using a Pherastar instrument (BMG-LabTech). Percentage of inhibition […] were calculated from the fluorescence signal at 450 nm of the positive and negative control using the following formula: I% = ((signal Max−signal Sample)/(signal Max−signal Min control)) × 100 [formula]
Positive control (Max): corresponds to the maximum fluorescence signal obtained in the presence of 15 nL DMSO replacing the inhibitor in the pre-incubation step.
Negative control (Min): corresponds to the minimum signal obtained in the presence of 1 µM of RMC-4550, the structure of which is shown below: [drawing 464]
The IC50 were then calculated from a dose-response curve of 10 concentrations of tested compound using the 4-parameter logistic model: I% = A + (C)/(1 + exp(−B×log(X)−M)) [formula]
The parameters A and (A+C) are the lower and upper limits, B is the slope of the curve at the inflexion point, M parameter is the logarithm of the abscissa at the inflexion point, and X is the concentration of compound.
What is called IC50 is the midpoint of a concentration-inhibition curve. As for `Cc1nc(N2CCC3(CC2)Cc2ccc(C#N)cc2[C@H]3N)c2ccnn2c1-c1cnn(C)c1C` (single isomer, unassigned) [Compound 211], the IC50 was determined as 0.008 µM.
`Cc1nc(N2CCC3(CC2)Cc2ccc(C#N)cc2[C@@H]3N)c2ccnn2c1-c1cnn(C)c1C` (single isomer, unassigned) [Compound 212]: the IC50 was found to be 0.288 µM.
The figure for `Cc1nc(N2CCC3(CC2)Cc2ncccc2[C@H]3N)c2ccnn2c1-c1cccc(F)c1F` [Compound 1, (5S)-1'-[7-(2,3-difluorophenyl)-6-methyl-pyrazolo[1,5-a]pyrazin-4-yl]spiro[5,7-dihydrocyclopenta[b]pyridine-6,4'-piperidine]-5-amine] is 0.006 µM; for `Cc1nc(N2CCC3(CC2)Cc2ncccc2[C@H]3N)c2ccnn2c1-c1cccc(F)c1Cl` [Compound 2, (5S)-1'-(7-(2-chloro-3-fluorophenyl)-6-methylpyrazolo[1,5-a]pyrazin-4-yl)-5,7-dihydrospiro[cyclopenta[b]pyridine-6,4'-piperidin]-5-amine] it is 0.006 µM.
Take `COc1cccc(-c2c(C)nc(N3CCC4(CC3)Cc3ncccc3[C@H]4N)c3ccnn23)c1Cl` [Compound 3, (5S)-1'-(7-(2-chloro-3-methoxyphenyl)-6-methylpyrazolo[1,5-a]pyrazin-4-yl)-5,7-dihydrospiro [cyclopenta[b]pyridine-6,4'-piperidin] -5-amine hydrochloride]: the IC50 worked out at 0.003 µM.
For `COc1cccc(-c2c(C)nc(N3CCC4(CC3)Cc3ncccc3[C@H]4N)c3ccnn23)c1F` [Compound 4, (5S)-1'-[7-(2-fluoro-3-methoxy-phenyl)-6-methyl-pyrazolo [1 ,5-a]pyrazin-4-yl]spiro[5,7-dihydrocyclopenta[b]pyridine-6,4'-piperidine] -5-amine], the IC50 is 0.007 µM.
As to `COc1c(F)ccc(-c2c(C)nc(N3CCC4(CC3)Cc3ncccc3[C@H]4N)c3ccnn23)c1F` [Compound 5, (5S)-1'-[7-(2,4-difluoro-3-methoxy-phenyl)-6-methyl-pyrazolo [1 ,5-a]pyrazin-4-yl]spiro[5,7-dihydrocyclopenta[b]pyridine-6,4'-piperidine] -5-amine], the IC50 is 0.003 µM.
In the case of `COc1ccc2c(c1)CC1(CCN(c3nc(C)c(-c4ccnc(C)c4Cl)n4nccc34)CC1)[C@@H]2N` [Compound 6, (1S)-1'-[7-(3-chloro-2-methyl-4-pyridyl)-6-methyl-pyrazolo[1,5-a]pyrazin-4-yl]-5-methoxy-spiro[indane-2,4'-piperidine]-1-amine], the IC50 worked out at 0.008 µM.
Take `Cc1nc(N2CCC3(CC2)Cc2ncccc2[C@H]3N)c2ccnn2c1-c1ccnc(C(C)C)c1Cl` [Compound 7, (5S)-1'-[7-(3-chloro-2-isopropyl-4-pyridyl)-6-methyl-pyrazolo[1,5-a]pyrazin-4-yl]spiro[5,7-dihydrocyclopenta[b]pyridine-6,4'-piperidine] -5-amine hydrochloride]: the IC50 worked out at 0.013 µM.
For `Cc1cnc2c(c1)[C@@H](N)C1(CCN(c3nc(C)c(-c4ccccc4F)n4nccc34)CC1)C2` [Compound 8, (5S)-1'-[7-(2-fluorophenyl)-6-methyl-pyrazolo[1,5-a]pyrazin-4-yl]-3-methyl-spiro[5,7-dihydrocyclopenta[b]pyridine-6,4'-piperidine] -5-amine] the value was 0.006 µM; for `COc1ccc2c(c1)[C@@H](N)C1(CCN(c3nc(C)c(-c4cccc(F)c4Cl)n4nccc34)CC1)C2` [Compound 9, (1S)-1'-[7-(2-chloro-3-fluorophenyl)-6-methyl-pyrazolo[1,5-a]pyrazin-4-yl]-6-methoxy-spiro[indane-2,4'-piperidine]-1-amine hydrochloride], 0.043 µM.
For `COc1ccc2c(c1)[C@@H](N)C1(CCN(c3nc(C)c(-c4ccnc(C)c4Cl)n4nccc34)CC1)C2` [Compound 10, (1S)-1'-[7-(3-chloro-2-methyl-4-pyridyl)-6-methyl-pyrazolo [1,5-a]pyrazin-4-yl]-6-methoxy-spiro[indane-2,4'-piperidine]-1-amine hydrochloride] the value was 0.011 µM; for `COc1ccc2c(c1)[C@@H](N)C1(CCN(c3nc(C)c(-c4ccccc4F)n4nccc34)CC1)C2` [Compound 11, (1S)-1'-[7-(2-fluorophenyl)-6-methyl-pyrazolo[1,5-a]pyrazin-4yl]-6-methoxy-spiro[indane-2,4'-piperidine]-1-amine hydrochloride], 0.023 µM; for `Cc1nc(N2CCC3(CC2)Cc2cccnc2[C@H]3N)c2ccnn2c1-c1cccc(F)c1Cl` [Compound 12, (7S)-1'-[7-(2-chloro-3-fluorophenyl)-6-methyl-pyrazolo[1,5-a]pyrazin-4-yl]spiro[5,7-dihydrocyclopenta[b]pyridine-6,4'-piperidine]-7-amine], 0.014 µM.
For `Cc1nccc(-c2c(C)nc(N3CCC4(CC3)Cc3cccnc3[C@H]4N)c3ccnn23)c1Cl` [Compound 13, (7S)-1'-[7-(3-chloro-2-methyl-4-pyridyl)-6-methyl-pyrazolo[1,5-a]pyrazin-4-yl]spiro[5,7-dihydrocyclopenta[b]pyridine-6,4'-piperidine]-7-amine], the IC50 came out at 0.007 µM.
Take `Cc1nc(N2CCC3(CC2)Oc2ncccc2[C@H]3N)c2ccnn2c1-c1cccc(F)c1Cl` [Compound 14, (3R)-1'-[7-(2-chloro-3-fluorophenyl)-6-methyl-pyrazolo [1 ,5-a]pyrazin-4-yl]spiro[3H-furo[2,3-b]pyridine-2,4'-piperidine]-3-amine]: the IC50 worked out at 0.04 µM.
The figure for `Cc1nccc(-c2c(C)nc(N3CCC4(CC3)Oc3ncccc3[C@H]4N)c3ccnn23)c1Cl` [Compound 15, (3R)-1'-[7-(3-chloro-2-methyl-4-pyridyl)-6-methyl-pyrazolo[1,5-a]pyrazin-4-yl]spiro[3H-furo[2,3-b]pyridine-2,4'-piperidine]-3-amine] is 0.02 µM.
With `Cc1nc(N2CCC3(CC2)Oc2ncccc2[C@H]3N)c2ccnn2c1-c1ccc(F)c2cc[nH]c12` [Compound 16, (3R)-1'-[7-(4-fluoro-1H-indol-7-yl)-6-methyl-pyrazolo[1,5-a]pyrazin-4-yl]spiro[3H-furo[2,3-b]pyridine-2,4'-piperidine]-3-amine], the IC50 came to 0.042 µM.
For `Cc1nc(N2CCC3(CC2)Oc2ncccc2[C@H]3N)c2ccnn2c1-c1cccc(Cl)c1Cl` [Compound 17, (3R)-1'-[7-(2,3-dichlorophenyl)-6-methyl-pyrazolo[1,5-a]pyrazin-4-yl]spiro[3H-furo[2,3-b]pyridine-2,4'-piperidine]-3-amine] the value was 0.039 µM.
The figure for `Cc1nc(N2CCC3(CC2)Oc2ccccc2[C@H]3N)c2ccnn2c1-c1ccc(F)c2cc[nH]c12` [Compound 18, (3R)-1'-[7-(4-fluoro-1H-indol-7-yl)-6-methyl-pyrazolo[1,5-a]pyrazin-4-yl] spiro [3H-benzofuran-2,4'-piperidine] -3 - amine] is 0.132 µM; for `Cc1nc(N2CCC3(CC2)Oc2ccccc2[C@H]3N)c2ccnn2c1-c1cccc(Cl)c1Cl` [Compound 19, (3R)-1'-[7-(2,3-dichlorophenyl)-6-methyl-pyrazolo [1 ,5-a]pyrazin-4-yl]spiro[3H-benzofuran-2,4'-piperidine]-3-amine] it is 0.102 µM.
`Cc1nc(N2CCC3(CC2)Oc2ccccc2[C@H]3N)c2ccnn2c1-c1cccc(F)c1Cl` [Compound 20, (3R)-1'-[7-(2-chloro-3-fluorophenyl)-6-methyl-pyrazolo[1,5-a]pyrazin-4-yl]spiro[3H-benzofuran-2,4'-piperidine]-3-amine]: the IC50 worked out at 0.115 µM.
